The values below are quoted from earlier work in patent publication US20050277634A1, “Liquid composition for veterinary medicine and process for the preparation and use thereof” (Boehringer Ingelheim Vetmedica GmbH, priority 2004, published 2005).

For this data set the following is noted: injectable solution, subcutaneous administration.

In the case of `Cc1cnc(NC(=O)C2=C(O)c3ccccc3S(=O)(=O)N2C)s1` [meloxicam], the Bioavailability result is reported as “fully bioavailable” and the “Time to maximum plasma concentrations” value was “after a few hours”.
